Laboratory results: patent US8853490B2 (priority 2010, dated 2014)
Where two headings read alike, the source gives them in different places.

Assays:
[1] = test system: Colletotrichum graminicola (CGR; isolate Carroll-IA-99); format: cell-based
[2] = test system: Diplodia maydis (DMA; isolate Warren-IN-96); format: cell-based

Substance | In vitro antifungal activity (IC50) against C. graminicola (CGR) ([1]; high salt conditions) [ppm] | In vitro antifungal activity (IC50) against D. maydis (DMA) ([2]; high salt conditions) [ppm] | In vitro antifungal activity (IC50) against C. graminicola (CGR) ([1]; low salt conditions) [ppm] | In vitro antifungal activity (IC50) against D. maydis (DMA) ([2]; low salt conditions) [ppm]
LB-9827-3B-26G11: LBNL variant generated through gene shuffling of the LB-9827-1 mature peptide coding sequence (LSKYGGECSKEHNTCKYLKGGKNQVVACPKAANKKCKTDRHHCEYDEYHKTVDCQTPV; Synthetic peptide LB-9827-3B-26G11) | 0.63 | – | – | –
LB-9827-3A-11E4: LBNL variant generated through gene shuffling of the LB-9827-1 mature peptide coding sequence (LSKYGGECSRKHNTCTYKKGGKNQIVNCPTAANKRCKTDRHHCEYDEYHRRVDCQTPV; LB-9827-3A-11E4) | 1.25 | 0.94 | – | –
LB-9827-3B-25G5: LBNL variant generated through gene shuffling of the LB-9827-1 mature peptide coding sequence (LSKYGGECSRAHNTCTYRKGGKNQVVKCGTAANKKCKSDRHHCEYDDYHKRVDCQTPV; Synthetic peptide LB-9827-3B-25G5) | 1.25 | 0.47 | – | –
LB-5220 (r2 6F2): LBNL variant generated through gene shuffling of the LB-5220 mature peptide coding sequence (LKYTGTCRRANNQCKYKGQNNRDTFVKCPTFANKKCTRDGEKCSFDSYSRAVTCD; LB-5220 (r2-6F2)) | 12 | 6 | 0.4 | 0.1
LB-9827-3B-25F2: LBNL variant generated through gene shuffling of the LB-9827-1 mature peptide coding sequence (LSKYGGECSREHNTCTYLKGGKNQVVACGSAANKKCKRDRHHCEYDDYHKTVDCQTPV; Synthetic peptide LB-9827-3B-25F2) | 1.25 | 7.5 | – | –
LB-9827-3B-21E10: LBNL variant generated through gene shuffling of the LB-9827-1 mature peptide coding sequence (LSKYGGECSRAHNTCTYRKGGKNQVVNCPSAANKKCKSDRHHCEYDEYHKRVDCQTPV; Synthetic peptide LB-9827-3B-21E10) | 1.25 | 30 | – | –
LB-5220 (ps 1B4): LBNL variant generated through gene shuffling of the LB-5220 mature peptide coding sequence (LKYTGTCTRKNNQCKYRGQNNRDTFVKCPTFANKRCTRDGAPCSFDSYSRAVTCD; Synthetic peptide LB-5220 (ps-1B4)) | – | 12 | – | 0.1
LB-5220 (r2 5G7): LBNL variant generated through gene shuffling of the LB-5220 mature peptide coding sequence (LKYTGTCRRANNQCKYKGQNNRDTFVKCPTFANKKCTRDGAKCSFDSYSRAVTCD; Synthetic peptide LB-5220 (r2-5G7)) | 6 | 12 | – | 0.1
